# Data as given in ChEMBL document CHEMBL1201862, “PubChem BioAssay data set” (2004).
#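 Cells were grown in 96-well plates and exposed to each compound for 48 hours at five concentrations; endpoints were interpolated linearly between bracketing concentrations, or set to the highest concentration if not reached. Here, GI50 denotes the concentration required for 50% inhibition of growth.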 Calls of active or inactive are those of the source. Rule as the data show it: active = GI50 up to about 1.1 µM and inactive = higher.
# Columns and labels:
# Test in all cases: growth of human tumour cells (NCI), 48 h
# [1] = system: Malme-3M
# [2] = system: SW-620
# [3] = system: A498
# [4] = system: DLD-1
# [5] = system: RPMI-8226
# [6] = system: NCI-H522
# [7] = system: CCRF-CEM
# [8] = system: HCT-116
# [9] = system: SNB-19
# [10] = system: K562
# [11] = system: SF-268
# [12] = system: SN12C
# [13] = system: SK-MEL-28
# [14] = system: SK-MEL-2
# [15] = system: OVCAR-8
# [16] = system: UACC-257
# [17] = system: TK-10
# [18] = system: XF498
# [19] = system: NCI-H23
# [20] = system: A549
# [21] = system: 786-0
# [22] = system: EKVX
# [23] = system: KM-20L2
# [24] = system: HOP-18
# [25] = system: HCC 2998
# [26] = system: OVCAR-4
# [27] = system: LXFL 529
# [28] = system: U-251
# [29] = system: NCI-H460
# [30] = system: KM12
# [31] = system: OVCAR-5
# [32] = system: UO-31
# [33] = system: OVCAR-3
# [34] = system: SF-295
# [35] = system: MOLT-4
# [36] = system: HCT-15
# [37] = system: SNB-78
# [38] = system: SNB-75
# [39] = system: CAKI-1
# [40] = system: HOP-62
# [41] = system: SF-539
# [42] = system: HT-29
# [43] = system: SK-MEL-5
# [44] = system: M14
# [45] = system: ACHN
# [46] = system: MCF7
# [47] = system: COLO 205
# [48] = system: SR
# [49] = system: PC-3
# [50] = system: M19-MEL
# [51] = system: MDA-N
# [52] = system: HOP-92
# [53] = system: UACC-62
# [54] = system: RXF 393
# [55] = system: DMS-114
# [56] = system: NCI-H226
# [57] = system: MDA-MB-231
# [58] = system: NCI/ADR-RES
# [59] = system: BT-549
# [60] = system: HL-60
# [61] = system: Hs-578T
# [62] = system: IGROV-1
# [63] = system: SK-OV-3
# [64] = system: LOX IMVI
# [65] = system: MDA-MB-435
# [66] = system: DU-145
# [67] = system: DMS-273
smiles,measurement,setting,value
COc1ccc2ccnc(Cc3ccc(OCc4ccccc4)c(OC)c3)c2c1,GI50,[1],16.9 µM (inactive)
same,GI50,[2],33.5 µM (inactive)
same,GI50,[3],21.8 µM (inactive)
same,GI50,[4],25.5 µM (inactive)
same,GI50,[5],16.2 µM (inactive)
same,GI50,[6],22.8 µM (inactive)
same,GI50,[7],27.4 µM (inactive)
same,GI50,[8],16.1 µM (inactive)
same,GI50,[9],85.9 µM (inactive)
same,GI50,[10],31 µM (inactive)
same,GI50,[11],22.1 µM (inactive)
same,GI50,[12],14.2 µM (inactive)
same,GI50,[13],16.7 µM (inactive)
same,GI50,[14],20.7 µM (inactive)
same,GI50,[15],19.1 µM (inactive)
same,GI50,[16],20.8 µM (inactive)
same,GI50,[17],27.9 µM (inactive)
same,GI50,[18],10.4 µM (inactive)
same,GI50,[19],19.8 µM (inactive)
same,GI50,[20],24.4 µM (inactive)
same,GI50,[21],19.2 µM (inactive)
same,GI50,[22],17.9 µM (inactive)
same,GI50,[23],34.5 µM (inactive)
same,GI50,[24],16.6 µM (inactive)
same,GI50,[25],19.3 µM (inactive)
same,GI50,[26],14.2 µM (inactive)
same,GI50,[27],25.9 µM (inactive)
same,GI50,[28],20.9 µM (inactive)
same,GI50,[29],18.9 µM (inactive)
same,GI50,[30],18 µM (inactive)
same,GI50,[31],40.3 µM (inactive)
same,GI50,[32],6 µM (inactive)
same,GI50,[33],17.1 µM (inactive)
same,GI50,[34],26.4 µM (inactive)
same,GI50,[35],17.6 µM (inactive)
same,GI50,[36],15.2 µM
same,GI50,[37],26.2 µM (inactive)
same,GI50,[38],27 µM (inactive)
same,GI50,[39],29.2 µM (inactive)
same,GI50,[40],15.8 µM (inactive)
same,GI50,[41],17.2 µM (inactive)
same,GI50,[42],27.8 µM (inactive)
same,GI50,[43],15.1 µM (inactive)
same,GI50,[44],18 µM (inactive)
same,GI50,[45],23.6 µM (inactive)
COc1ccc(/C=C2\CCC(CN(C)C)C2=O)cc1 (stereo unspecified),GI50,[1],4.92 µM (inactive)
same,GI50,[2],1.96 µM (inactive)
same,GI50,[3],15 µM (inactive)
same,GI50,[46],1.95 µM (inactive)
same,GI50,[4],3.62 µM (inactive)
same,GI50,[5],0.832 µM (active)
same,GI50,[47],3.42 µM (inactive)
same,GI50,[6],1.1 µM (active)
same,GI50,[48],1.26 µM (inactive)
same,GI50,[7],2.26 µM (inactive)
same,GI50,[8],2.29 µM (inactive)
same,GI50,[9],10.3 µM (inactive)
same,GI50,[10],1.6 µM (inactive)
same,GI50,[11],9.71 µM (inactive)
same,GI50,[49],5.12 µM (inactive)
same,GI50,[12],5.83 µM (inactive)
same,GI50,[50],8.71 µM (inactive)
same,GI50,[13],5.75 µM (inactive)
same,GI50,[51],3.44 µM (inactive)
same,GI50,[52],6.1 µM (inactive)
same,GI50,[14],7.87 µM (inactive)
same,GI50,[15],3.24 µM (inactive)
same,GI50,[16],3.75 µM (inactive)
same,GI50,[17],5.98 µM (inactive)
same,GI50,[53],8.91 µM (inactive)
same,GI50,[18],4.21 µM (inactive)
same,GI50,[54],2.94 µM (inactive)
same,GI50,[55],5.98 µM (inactive)
same,GI50,[56],16.3 µM (inactive)
same,GI50,[19],7.91 µM (inactive)
same,GI50,[57],1.99 µM (inactive)
same,GI50,[58],2.36 µM (inactive)
same,GI50,[20],12.2 µM (inactive)
same,GI50,[21],1.65 µM (inactive)
same,GI50,[22],17.8 µM (inactive)
same,GI50,[23],17.1 µM (inactive)
same,GI50,[24],6.85 µM (inactive)
same,GI50,[59],3.26 µM (inactive)
same,GI50,[60],1.02 µM (active)
same,GI50,[25],8.13 µM (inactive)
same,GI50,[26],8.34 µM (inactive)
same,GI50,[27],2.05 µM (inactive)
same,GI50,[28],18.3 µM (inactive)
same,GI50,[29],16.6 µM (inactive)
same,GI50,[30],8.26 µM (inactive)
same,GI50,[31],13.6 µM (inactive)
same,GI50,[32],8.59 µM (inactive)
same,GI50,[33],4.12 µM (inactive)
same,GI50,[61],3.82 µM (inactive)
same,GI50,[34],17.9 µM (inactive)
same,GI50,[35],1.83 µM (inactive)
same,GI50,[62],8.47 µM (inactive)
same,GI50,[63],17.6 µM (inactive)
same,GI50,[36],2.29 µM
same,GI50,[64],1.93 µM (inactive)
same,GI50,[37],13.6 µM (inactive)
same,GI50,[38],12.4 µM (inactive)
same,GI50,[39],2.4 µM (inactive)
same,GI50,[65],1.88 µM (inactive)
same,GI50,[66],2.94 µM (inactive)
same,GI50,[40],12.2 µM (inactive)
same,GI50,[41],7.83 µM (inactive)
same,GI50,[42],3.5 µM (inactive)
same,GI50,[43],8.69 µM (inactive)
same,GI50,[44],2.54 µM (inactive)
same,GI50,[45],9.77 µM (inactive)
Cn1c2c(c3ccccc31)CCN(CCN1CCN(c3cccc(Cl)c3)CC1)C2=O,GI50,[2],63.4 µM (inactive)
same,GI50,[3],> 100 µM (inactive)
same,GI50,[4],20.7 µM (inactive)
same,GI50,[5],21.6 µM (inactive)
same,GI50,[67],49.5 µM (inactive)
same,GI50,[47],40.7 µM (inactive)
same,GI50,[6],47.5 µM (inactive)
same,GI50,[7],> 100 µM (inactive)
same,GI50,[8],40.5 µM (inactive)
same,GI50,[10],35.3 µM (inactive)
same,GI50,[11],> 100 µM (inactive)
same,GI50,[12],32.1 µM (inactive)
same,GI50,[50],> 100 µM (inactive)
same,GI50,[13],> 100 µM (inactive)
same,GI50,[52],19.9 µM (inactive)
same,GI50,[15],> 100 µM (inactive)
same,GI50,[17],> 100 µM (inactive)
same,GI50,[53],72.9 µM (inactive)
same,GI50,[18],3.38 µM (inactive)
same,GI50,[54],67.1 µM (inactive)
same,GI50,[55],37.4 µM (inactive)
same,GI50,[19],35.8 µM (inactive)
same,GI50,[20],> 100 µM (inactive)
same,GI50,[21],> 100 µM (inactive)
same,GI50,[22],> 100 µM (inactive)
same,GI50,[23],32.4 µM (inactive)
same,GI50,[24],> 100 µM (inactive)
same,GI50,[60],15.9 µM (inactive)
same,GI50,[27],49 µM (inactive)
same,GI50,[28],> 100 µM (inactive)
same,GI50,[32],30.3 µM (inactive)
same,GI50,[35],43.8 µM (inactive)
same,GI50,[62],> 100 µM (inactive)
same,GI50,[63],> 100 µM (inactive)
same,GI50,[36],25.8 µM
same,GI50,[64],57.9 µM (inactive)
same,GI50,[40],> 100 µM (inactive)
same,GI50,[41],> 100 µM (inactive)
same,GI50,[42],18.2 µM (inactive)
same,GI50,[43],23.6 µM (inactive)
same,GI50,[44],46 µM (inactive)
same,GI50,[45],> 100 µM (inactive)
O=C(Nc1ccccc1)c1cccc([N+](=O)[O-])c1,GI50,[1],> 100 µM (inactive)
same,GI50,[2],> 100 µM (inactive)
same,GI50,[3],> 100 µM (inactive)
same,GI50,[5],39.9 µM (inactive)
same,GI50,[67],> 100 µM (inactive)
same,GI50,[47],> 100 µM (inactive)
same,GI50,[7],> 100 µM (inactive)
same,GI50,[8],> 100 µM (inactive)
same,GI50,[9],> 100 µM (inactive)
same,GI50,[10],> 100 µM (inactive)
same,GI50,[11],> 100 µM (inactive)
same,GI50,[12],> 100 µM (inactive)
same,GI50,[50],> 100 µM (inactive)
same,GI50,[13],> 100 µM (inactive)
same,GI50,[52],> 100 µM (inactive)
same,GI50,[15],> 100 µM (inactive)
same,GI50,[53],> 100 µM (inactive)
same,GI50,[18],> 100 µM (inactive)
same,GI50,[55],92.9 µM (inactive)
same,GI50,[20],> 100 µM (inactive)
same,GI50,[21],> 100 µM (inactive)
same,GI50,[22],> 100 µM (inactive)
same,GI50,[23],37.5 µM (inactive)
same,GI50,[24],> 100 µM (inactive)
same,GI50,[25],> 100 µM (inactive)
same,GI50,[28],> 100 µM (inactive)
same,GI50,[33],> 100 µM (inactive)
same,GI50,[35],60.8 µM (inactive)
same,GI50,[62],> 100 µM (inactive)
same,GI50,[36],> 100 µM
same,GI50,[37],> 100 µM (inactive)
same,GI50,[38],> 100 µM (inactive)
same,GI50,[39],> 100 µM (inactive)
same,GI50,[40],> 100 µM (inactive)
same,GI50,[41],> 100 µM (inactive)
same,GI50,[42],> 100 µM (inactive)
same,GI50,[43],> 100 µM (inactive)
same,GI50,[45],> 100 µM (inactive)
